Source: BindingDB's records for PubMed 30559935 (University of Nottingham)

Tests used:
[1] = Inhibition of EZH2 in human DKFZ-EP1 cells assessed as reduction in cell viability incubated for 120 hrs by MTT assay
[2] = Inhibition of EZH2 in human BXD-1425EPN cells assessed as reduction in cell viability incubated for 120 hrs by MTT assay
[3] = Inhibition of EZH2 in human EPN8 cells assessed as reduction in cell viability incubated for 120 hrs by MTT assay

SMILES: CCCc1cc(C)[nH]c(=O)c1CNC(=O)c1cc(-c2ccnc(N3CCN(C)CC3)c2)cc2c1cnn2C(C)C
- IC50 [1]: 20 µM
- IC50 [2]: 16 µM
- IC50 [3]: 20 µM
